Read-outs that look alike come from different tables or passages of the source.

This note sets out measurements from patent US20130071854A1, “METHODS FOR THE IDENTIFICATION AND CHARACTERIZATION OF HDAC INTERACTING COMPOUNDS” (priority 2009, published 2013).

Experiment [1] has as its target T1, non-HDAC targets (e.g. BZW2, ISOC2, aldehyde dehydrogenases) (Homo sapiens, UniProt O94788).
T1 construct: endogenous in cells; host or cells: K562 whole cell extract
T1 sequence (O94788 1-518): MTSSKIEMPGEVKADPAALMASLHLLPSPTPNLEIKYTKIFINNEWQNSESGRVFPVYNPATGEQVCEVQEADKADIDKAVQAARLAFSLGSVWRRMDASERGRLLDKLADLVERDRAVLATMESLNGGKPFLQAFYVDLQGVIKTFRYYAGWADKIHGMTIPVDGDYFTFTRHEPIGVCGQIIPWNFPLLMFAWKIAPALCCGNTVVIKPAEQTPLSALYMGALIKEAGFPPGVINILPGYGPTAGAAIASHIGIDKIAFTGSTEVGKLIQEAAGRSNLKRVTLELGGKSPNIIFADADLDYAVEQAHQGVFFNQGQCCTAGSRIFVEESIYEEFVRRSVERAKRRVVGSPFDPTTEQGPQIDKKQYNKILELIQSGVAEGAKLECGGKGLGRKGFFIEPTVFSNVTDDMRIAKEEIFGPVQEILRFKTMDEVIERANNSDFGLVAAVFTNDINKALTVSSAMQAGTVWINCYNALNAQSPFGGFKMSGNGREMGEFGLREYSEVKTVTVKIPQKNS
Briefly: Chemoproteomic binding profiling, K562 cell extract, SAHA/ITF2357 probe matrix (Kd app). The note with it: protein ALDH1A2; selected HDACi off-targets.

Experiment [2] deals with T2, non-HDAC targets (e.g. BZW2, ISOC2, aldehyde dehydrogenases) (Homo sapiens, UniProt Q9Y6E2).
T2 construct: endogenous in cells; host or cells: K562 whole cell extract
T2 sequence (Q9Y6E2 1-419): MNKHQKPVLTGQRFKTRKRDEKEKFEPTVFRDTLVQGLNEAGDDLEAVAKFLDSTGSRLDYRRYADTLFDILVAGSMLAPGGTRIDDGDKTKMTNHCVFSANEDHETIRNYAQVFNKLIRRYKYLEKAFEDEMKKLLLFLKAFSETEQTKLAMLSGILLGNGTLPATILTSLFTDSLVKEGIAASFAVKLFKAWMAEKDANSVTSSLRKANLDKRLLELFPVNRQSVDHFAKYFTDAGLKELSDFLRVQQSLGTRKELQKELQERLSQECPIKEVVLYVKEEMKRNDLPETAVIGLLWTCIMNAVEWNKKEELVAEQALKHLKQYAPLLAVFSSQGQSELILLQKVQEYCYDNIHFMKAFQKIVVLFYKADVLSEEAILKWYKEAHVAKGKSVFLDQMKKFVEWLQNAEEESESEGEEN
The description is as above. The note with it: protein BZW2; selected HDACi off-targets.

Experiment [3] has as its target T3, non-HDAC targets (e.g. BZW2, ISOC2, aldehyde dehydrogenases) (Homo sapiens, UniProt P16152).
T3 construct: Kd^app CBR1; other: protein CBR1; selected HDACi off-targets
T3 sequence (P16152 1-277): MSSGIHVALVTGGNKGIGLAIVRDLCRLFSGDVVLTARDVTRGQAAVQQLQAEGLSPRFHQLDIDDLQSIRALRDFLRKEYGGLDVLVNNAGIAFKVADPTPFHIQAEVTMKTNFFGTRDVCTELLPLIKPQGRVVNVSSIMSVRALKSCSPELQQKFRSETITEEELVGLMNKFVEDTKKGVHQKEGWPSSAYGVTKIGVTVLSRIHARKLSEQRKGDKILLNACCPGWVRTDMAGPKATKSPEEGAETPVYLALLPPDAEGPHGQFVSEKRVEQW
The experiment is described as above. Conditions: protein CBR1; selected HDACi off-targets.

Experiment [4] concerns the target T4, non-HDAC targets (e.g. BZW2, ISOC2, aldehyde dehydrogenases) (Homo sapiens, UniProt Q08209).
T4 construct: Kd^app PPP3CA; other: protein PPP3CA; selected HDACi off-targets
Described as above. The note with it: protein PPP3CA; selected HDACi off-targets.

Experiment [5] addresses T5, non-HDAC targets (e.g. BZW2, ISOC2, aldehyde dehydrogenases) (Homo sapiens, UniProt Q96AB3).
T5 construct: endogenous in cells; host or cells: K562 whole cell extract
T5 sequence (Q96AB3 1-205): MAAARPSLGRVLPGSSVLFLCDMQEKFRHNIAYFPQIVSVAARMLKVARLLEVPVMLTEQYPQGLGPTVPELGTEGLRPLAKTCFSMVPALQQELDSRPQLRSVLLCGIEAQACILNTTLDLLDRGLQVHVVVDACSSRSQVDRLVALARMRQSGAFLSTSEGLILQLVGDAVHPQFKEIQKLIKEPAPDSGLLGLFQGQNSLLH
The description is as above. The note with it: protein ISOC2; selected HDACi off-targets.

The subject of experiment [6] is Sin3 complex. The experiment is described as above. On the set-up: species or system human.
Experiment [7] relates to NuRD complex. Described as above. On the set-up: species or system human.
Experiment [8] relates to CoREST complex. The description is as above. Details: species or system human.
Experiment [9] concerns MIER2. The experiment can be described thus: Chemoproteomic binding profiling, K562 cell extract, SAHA/ITF2357 probe matrix (Kd app), ELSA (ELM-SANT) domain protein. On the set-up: species or system human. The note with it: ELSA (ELM-SANT) domain proteins.
Experiment [10] deals with T6, MiDAC complex (HDAC1/2, DNTTIP1, CDYL, MIDEAS).
T6 construct: Kd^app MIDEAS; other: protein MIDEAS; MiDAC complex; Kd^app DNTTIP1; other: protein DNTTIP1
The experiment can be described thus: Chemoproteomic binding profiling, K562 cell extract, SAHA/ITF2357 probe matrix (Kd app). Details: species or system human.

In experiment [11] the test system is MIER1. Briefly: Chemoproteomic binding profiling, K562 cell extract, SAHA/ITF2357 probe matrix (Kd app), ELSA (ELM-SANT) domain protein. On the set-up: species or system human. The note with it: ELSA (ELM-SANT) domain proteins.
Experiment [12] deals with MIER3. Described as above. Details: species or system human. The note with it: ELSA (ELM-SANT) domain proteins.
Experiment [13] concerns RERE. The experiment is described as above. Details: species or system human.
The test system of experiment [14] is EHMT2. The experiment can be described thus: Chemoproteomic binding profiling, K562 cell extract, SAHA/ITF2357 probe matrix (Kd app), ELSA (ELM-SANT) domain proteins group. Details: species or system human. The note with it: protein EHMT2.
Experiment [15] concerns the target T7, HDAC1 (Homo sapiens, UniProt Q13547).
T7 construct: used to probe endogenous HDACs in K562 whole cell extracts; endogenous in cells
The experiment can be described thus: Chemoproteomic binding profiling, K562 cell extract, SAHA/ITF2357 probe matrix (Kd app).

Experiment [16] relates to acetylated tubulin. The experiment can be described thus: Cell-based tubulin acetylation assay (immunofluorescence, western blotting). On the set-up: species or system human. The note with it: K562 and HeLa cells; immunofluorescence and western blotting.
Experiment [17] has as its system acetylated histones H3 and H4. Briefly: Cell-based histone acetylation assay (immunofluorescence, western blotting). On the set-up: species or system human. Conditions: K562 and HeLa cells. In general terms: A western blot detects proteins with antibodies after separation by electrophoresis.
Setting [18] is: protein SAP30, read-out: Kd^app SAP30.
[19] abbreviates: protein SIN3A, read-out: Kd^app SIN3A.
Setting [20] is: protein SIN3B, read-out: Kd^app SIN3B.
Where [21] appears, read: protein GATAD2A, NuRD complex, read-out: Kd^app GATAD2A.
[22] abbreviates: protein GATAD2B, NuRD complex, read-out: Kd^app GATAD2B.
The mark [23] stands for this setting: protein MBD2, NuRD complex, read-out: Kd^app MBD2.
[24] abbreviates: protein MBD3, NuRD complex, read-out: Kd^app MBD3.
The mark [25] stands for this setting: protein MTA1, NuRD complex, read-out: Kd^app MTA1.
Where [26] appears, read: protein MTA2, NuRD complex, read-out: Kd^app MTA2.
Where [27] appears, read: protein MTA3, NuRD complex, read-out: Kd^app MTA3.
Where [28] appears, read: protein GSE1, CoREST complex, read-out: Kd^app GSE1.
Setting [29] is: protein HMG20A, CoREST complex, read-out: Kd^app HMG20A.
Where [30] appears, read: protein HMG20B, CoREST complex, read-out: Kd^app HMG20B.
[31] abbreviates: protein PHF21A, CoREST complex, read-out: Kd^app PHF21A.
[32] abbreviates: protein RCOR1, CoREST complex, read-out: Kd^app RCOR1.
The mark [33] stands for this setting: protein RCOR2, CoREST complex, read-out: Kd^app RCOR2.
[34] abbreviates: protein RCOR3, CoREST complex, read-out: Kd^app RCOR3.
[35] abbreviates: protein ZMYM2, CoREST complex, read-out: Kd^app ZMYM2.
Where [36] appears, read: protein ZMYM3, CoREST complex, read-out: Kd^app ZMYM3.
[37] abbreviates: protein DNTTIP1, read-out: Kd^app DNTTIP1.
The mark [38] stands for this setting: protein MIDEAS, read-out: Kd^app MIDEAS.
Where [39] appears, read: protein RERE, ELSA (ELM-SANT) domain proteins.

T7 sequence (Q13547 whole entry): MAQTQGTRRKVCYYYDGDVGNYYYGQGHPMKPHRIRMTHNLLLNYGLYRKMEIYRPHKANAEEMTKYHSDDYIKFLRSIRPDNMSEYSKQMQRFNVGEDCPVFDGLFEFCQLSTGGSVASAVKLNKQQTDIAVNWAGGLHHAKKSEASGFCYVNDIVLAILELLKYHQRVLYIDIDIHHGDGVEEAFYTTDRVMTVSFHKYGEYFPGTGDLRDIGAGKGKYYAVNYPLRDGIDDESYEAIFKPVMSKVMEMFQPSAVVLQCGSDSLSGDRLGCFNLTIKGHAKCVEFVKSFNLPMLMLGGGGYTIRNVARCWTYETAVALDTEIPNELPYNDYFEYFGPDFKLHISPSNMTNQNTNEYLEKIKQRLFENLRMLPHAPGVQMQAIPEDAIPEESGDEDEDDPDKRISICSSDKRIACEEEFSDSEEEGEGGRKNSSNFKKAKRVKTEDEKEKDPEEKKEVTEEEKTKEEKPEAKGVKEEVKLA

For the compound `Cn1cc(C(=O)Cc2ccccc2)cc1C=CC(=O)NO` [MC-1293], the Kd in [1] was > 10 µM; in experiment [2], 4 µM; in experiment [3] it was 19 µM; in [4], 40 µM; in experiment [5], 5 µM; in [6] (setting [18]) it was 164 µM. Also, the Kd is > 10 µM in experiment [6] (setting [19]); > 10 µM in experiment [6] (setting [20]); > 10 µM in [7] (protein CHD4, NuRD complex, read-out: Kd^app CHD4); > 10 µM in experiment [7] (setting [21]); > 10 µM in experiment [7] (setting [22]); > 10 µM in experiment [7] (setting [23]). In addition, the Kd in experiment [7] (setting [24]), in [7] (setting [25]), in experiment [7] (setting [26]), in experiment [7] (setting [27]), in experiment [8] (setting [28]) and in experiment [8] (setting [29]) was > 10 µM in each case. Besides, the Kd in experiment [8] (setting [30]), in experiment [8] (setting [31]), in [8] (setting [32]), in [8] (setting [33]), in experiment [8] (setting [34]) and in experiment [8] (setting [35]) was > 10 µM in each case. Also, the Kd in [8] (setting [36]) is > 10 µM; in experiment [9], > 10 µM; in [10] (setting [37]), > 10 µM; in experiment [10] (setting [38]), > 10 µM; in [11], > 10 µM; in experiment [12], 209 µM. The Kd in experiment [13] (setting [39]) and in experiment [14] was > 10 µM each time.
With `C/C=C1\NC(=O)[C@H]2CSSCC/C=C/[C@H](CC(=O)N[C@H](C(C)C)C(=O)N2)OC(=O)[C@H](C(C)C)NC1=O` [romidepsin], the Kd in experiment [15] came out at 0.01 µM.
As to `COc1ccc(Cn2ccc3ccc(C(=O)NO)cc32)cc1` [PCI-34051], the Kd is > 59.7 µM in experiment [1]; 5.04 µM in experiment [2]; 12.8 µM in [3]; 59.7 µM in experiment [4]; > 59.7 µM in experiment [5]; > 59.7 µM in experiment [6] (setting [18]). For the same compound, the Kd in experiment [6] (setting [19]), in experiment [6] (setting [20]), in experiment [7] (setting [21]), in [7] (setting [22]), in experiment [7] (setting [23]) and in experiment [7] (setting [24]) was > 59.7 µM in each case. Moreover, the Kd in experiment [7] (setting [25]), in experiment [7] (setting [26]), in [7] (setting [27]), in experiment [8] (setting [28]), in experiment [8] (setting [29]) and in experiment [8] (setting [30]) was > 59.7 µM each time. Also, the Kd in experiment [8] (setting [31]), in experiment [8] (setting [32]), in experiment [8] (setting [33]), in [8] (setting [34]), in experiment [8] (setting [35]) and in experiment [8] (setting [36]) was > 59.7 µM in each case. In addition, the Kd in experiment [9], in [10] (setting [37]), in experiment [10] (setting [38]), in experiment [11], in experiment [12] and in experiment [13] (setting [39]) was > 59.7 µM in each case. Moreover, the Kd in [14] is > 59.7 µM.
On to `CC(=O)Nc1ccc(C(=O)Nc2ccccc2N)cc1` [tacedinaline], for which the Kd in [1], in experiment [2], in [3], in experiment [4], in experiment [5] and in experiment [7] (read-out: Kd^app CHD4) was > 85 µM throughout. The Kd in experiment [7] (read-out: Kd^app GATAD2A) is 423 µM; in experiment [7] (read-out: Kd^app GATAD2B) it was 306 µM; in experiment [7] (read-out: Kd^app MBD2), > 85 µM; in [7] (read-out: Kd^app MBD3) it was 265 µM; in experiment [7] (read-out: Kd^app MTA1) it was 152 µM; in experiment [7] (read-out: Kd^app MTA2) it was 226 µM. Also, the Kd in experiment [7] (read-out: Kd^app MTA3) is 263 µM; in experiment [8] (read-out: Kd^app GSE1) it was 122 µM; in [8] (read-out: Kd^app HMG20A), 139 µM; in experiment [8] (read-out: Kd^app HMG20B), 168 µM; in experiment [8] (read-out: Kd^app RCOR1), 114 µM; in [8] (read-out: Kd^app RCOR2) it was 196 µM. Moreover, the Kd in [8] (read-out: Kd^app RCOR3) is 159 µM; in experiment [8] (read-out: Kd^app ZMYM2) it was > 85 µM; in [8] (read-out: Kd^app ZMYM3), > 85 µM; in experiment [9] it was 184 µM; in experiment [11], 195 µM; in experiment [12] it was 171 µM. For the same compound, the Kd in experiment [13] and in experiment [14] was > 85 µM in each case. For the same compound, the “tubulin acetylation (in words)” value in experiment [16] is “did not affect tubulin”. For the same compound, the “histone acetylation (in words)” value in experiment [17] is “elicited staining of acetylated histones”.
